The structures appear in SMILES notation.

One experiment has as its target V1 receptor (Rattus norvegicus, UniProt P30560). As to the kind of experiment: biochemical. It is filed as binding.
For experiment [1], the system named is increase of diastolic pressure caused by Arg-vasopressin. As to the kind of experiment: Anti-vasopressor activity in vivo (pith rat, increase of diastolic pressure by Arg-vasopressin). Also on record: species or system male SD rat. To be noted: iv, read-out: ED50 (dose required to reduce the increase of diastolic pressure caused by Arg-vasopressin to 50 % of its control value).

V1 receptor, sequence (P30560 whole entry): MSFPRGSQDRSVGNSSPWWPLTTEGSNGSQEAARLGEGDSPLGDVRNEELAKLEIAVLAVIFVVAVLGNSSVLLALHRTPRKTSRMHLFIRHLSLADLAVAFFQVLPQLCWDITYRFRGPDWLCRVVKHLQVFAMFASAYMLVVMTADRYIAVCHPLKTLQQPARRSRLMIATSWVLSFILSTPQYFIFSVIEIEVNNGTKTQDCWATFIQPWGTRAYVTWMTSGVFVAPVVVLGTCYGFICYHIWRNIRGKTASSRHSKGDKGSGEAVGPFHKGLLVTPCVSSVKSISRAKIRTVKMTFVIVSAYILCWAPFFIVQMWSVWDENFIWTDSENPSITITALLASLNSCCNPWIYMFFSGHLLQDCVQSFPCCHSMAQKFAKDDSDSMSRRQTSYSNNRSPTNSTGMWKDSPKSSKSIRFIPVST

`COc1ccc(C(=O)N2CCC(N3C(=O)CCc4ccccc43)CC2)c(OC)c1` [Example 47, 1-[1-(2,4-Dimethoxybenzoyl)-4-piperidinyl]-3,4-dihydrocarbostyril] gave an IC50 against V1 receptor of 100 nM. For the same molecule, in experiment [1], the ED50 was 0.4 mg/kg.

With `COc1cccc(CNCC(O)CCCCOc2ccc(C(=O)N3CCC(N4C(=O)CCc5ccccc54)CC3)cc2)c1` (stereo not drawn) [Example 298, 1-{1-(4-[5-Hydroxy-6-(3-methoxybenzylamino)hexyloxy]benzoyl)-4-piperidinyl}-3,4-dihydrocarbostyril], the IC50 at V1 receptor turned out to be 65 nM. `COc1ccc(CNCC(O)CCCCOc2ccc(C(=O)N3CCC(N4C(=O)CCc5ccccc54)CC3)cc2)cc1OC` (stereo not drawn) [Example 299, 1-{1-(4-[5-Hydroxy-6-(3,4-dimethoxybenzylamino)hexyloxy]benzoyl)-4-piperidinyl}-3,4-dihydrocarbostyril.oxalate] returned an IC50 against V1 receptor of 65 nM.

`CN(CCc1ccccn1)CC(O)CCCCOc1ccc(C(=O)N2CCC(N3C(=O)CCc4ccccc43)CC2)cc1` (stereo not drawn) [Example 300, 1-{1-(4-[5-Hydroxy-6-(N-methyl-N-(2-(2-pyridyl)ethyl)amino)hexyloxy]benzoyl]-4-piperidinyl}-3,4-dihydrocarbostyril]: half-maximal inhibition on V1 receptor (IC50) was put at 34 nM. For `CC[N+](C)(CC)CC(CCCCOc1ccc(C(=O)N2CCC(N3C(=O)CCc4ccccc43)CC2)cc1)OC` (stereo not drawn) [Example 301, 1-{1-[4-(5-Methoxy-6-diethylmethylammoniumhexyloxy)benzoyl]-4-piperidinyl}-3,4-dihydrocarbostyril.iodine], on V1 receptor, the midpoint of inhibition, the IC50, lay at 47 nM. As to `NC(=O)[C@@H]1CCCN1CC(O)CCCCOc1ccc(C(=O)N2CCC(N3C(=O)CCc4ccccc43)CC2)cc1` (stereo partly drawn) [Example 302], the IC50 at V1 receptor amounted to 88 nM. The molecule `O=C(c1ccc(OCCCCC(O)CN2CCCCC2)cc1)N1CCC(N2C(=O)CCc3ccccc32)CC1` (stereo not drawn) [Example 303, 1-{1-[4-(5-Hydroxy-6-(1-piperidinyl)hexyloxy)benzoyl]-4-piperidinyl}-3,4-dihydrocarbostyril] registered an IC50 against V1 receptor of 38 nM.

Consider `O=C(c1ccc(OCCCCC(O)CN2CCC(Cc3ccccc3)CC2)cc1)N1CCC(N2C(=O)CCc3ccccc32)CC1` (stereo not drawn) [Example 304, 1-{1-(4-[5-Hydroxy-6-(4-benzyl-1-piperidinyl)hexyloxy]benzoyl]-piperidinyl}-3,4-dihydrocarbostyril], for which, at V1 receptor, the IC50 came to 37 nM. Consider `CCN(CC)CC(CCCCOc1ccc(C(=O)N2CCC(N3C(=O)CCc4ccccc43)CC2)cc1)OC(C)=O` (stereo not drawn) [Example 305, 1-{1-[4-(5-Acetoxy-6-diethylaminohexyloxy)benzoyl]-4-piperidinyl)-3,4-dihydrocarbostyril], for which, on V1 receptor, half-maximal inhibition (IC50) was put at 65 nM.

On to `CCOc1ccc(C(=O)N2CCC(N3C(=O)CCc4c(F)cccc43)CC2)c(OC)c1` [Example 306, 5-Fluoro-1-[1-(2-methoxy-4-ethoxybenzoyl)-4-piperidinyl}-3,4-dihydrocarbostyril], for which, at V1 receptor, the IC50 was determined as 84 nM.

Molecule `CCN(CC)CCCCCCOc1ccc(C(=O)N2CCC(N3C(=O)CCc4c(C)cccc43)CC2)cc1` [Example 307, 5-Methyl-1-{1-[4-(6-diethylaminohexyloxy)benzoyl]-4-piperidinyl}-3,4-dihydrocarbostyril] had an IC50 against V1 receptor of 23 nM. `CCOc1ccc(C(=O)N2CCC(N3C(=O)CCc4c(O)cccc43)CC2)c(OC)c1` [Example 308, 5-Hydroxy-1-[1-(2-methoxy-4-ethoxybenzoyl)-4-piperidinyl}-3,4-dihydrocarbostyril] came in with an IC50 against V1 receptor of 95 nM. For `CCOc1ccc(C(=O)N2CCC(N3C(=O)CCc4c(OC(C)=O)cccc43)CC2)c(OC)c1` [Example 309, 5-Acetoxy-1-[1-(2-Methoxy-4-ethoxybenzoyl)-4-piperidinyl]-3,4-dihydrocarbostyril], on V1 receptor, the IC50 is 73 nM.

`CS(=O)(=O)NCC(=O)NCCCCCOc1ccc(C(=O)N2CCC(N3C(=O)CCc4ccccc43)CC2)cc1` [Example 310, 1-{1-(4-[5-(2-Methanesulfonylaminoacetylamino)pentyloxy]benzoyl)-4-piperidinyl]-3,4-dihydrocarbostyril] gave an IC50 at V1 receptor of 160 nM.
